These results are taken from patent US20180353461A1, “USE OF CANNABINOIDS AS CERAMIDE-GENERATING ANTICANCER AGENTS IN TUMORS OF THE HEMATOPOIETIC AND LYMPHOID TISSUES” (priority 2014, published 2018).

The test system of one experiment is U266 cells. Briefly: SPT expression, ceramide staining and SPT inhibition in U266 cells. In kind it is cell-based, human. To be noted: U266, co-incubation with cannabinoid, 6 hours. Here is the method:
Except if otherwise indicated, for the viability assays primary cells were incubated 18 hours, with vehicle (with <0.15% DMSO) or cannabinoid. Meanwhile, the time course assays cells were performed at 0, 2, 6, 18 and 24 h. For the analysis of SPT activity, cells were co-incubated for the first 6 hours with the SPT inhibitor, myriocin, and the cannabinoid, WIN-55 or JWH-133.
Samples (15-25 ug/lane) were subjected to SDS/PAGE in pre-cast polyacrylamide gels AnykD (Bio-Rad Laboratories, Hercules, CA, USA) under reducing and denaturing conditions. Electrophoretic run was performed at a constant current of 15 mA per gel in a Mini-Protean® Tetra Cell (Bio-Rad Laboratories). Once proteins were separated by electrophoresis, were transferred onto PVDF membranes using Trans-Blot® Turbo™ System (Bio-Rad Laboratories). Electrotransference was conducted at constant amperage of 1.2 mA and at up to 25 V of voltage. The blotted membranes were then blocked with 2% bovine serum albumin [(BSA), Santa Cruz Biotechnology] in Tween-Tris buffer saline (TTBS) for 30 min with gentle agitation, and incubated overnight at 4° C. with corresponding primary antibody in TTBS. After twice washing with TTBS, membranes were incubated for 1-2 h at room temperature with suitable conjugated-HRP secondary antibody, and subjected to chemiluminescence detection using Western Blotting Luminol Reagent (Santa Cruz Biotechnology). Loading controls were carried out with an anti-beta-actin and anti-beta-tubulin antibodies (Sigma-Aldrich). Blots were captured using a digital imaging system ImageQuant LAS 4000 (Amersham GE Healthcare) and transferred to a digital image processing software to analyze (Adobe Photoshop CS2, version 9.0., Adobe Systems Inc., San Jose, Calif.).
After cannabinoids and/or antagonists or SPT inhibitor treatment, primary cells and cell lines were washed with PBS, collected and placed on slides (Menzel-Glaser, Thermo Fisher Scientific). Cells were fixed in cold 4% paraformaldehyde for 10 min, treated with sodium borohydride and, permeabilized in 0.02% Triton X-100 in PBS with 10% normal donkey serum for blocking. Then, cells were incubated with the anti-CB1 or anti-CB2 receptor antibodies, anti-active-caspase3, anti-ceramide in blocking buffer overnight at 4° C. in a humid chamber (Simport, Beloeil, QC, Canada). After washing with PBS, samples were further incubated for 90 min with Alexa 647- or Alexa 488—conjugated donkey secondary antibody. After twice washing, first with PBS and then with 50 mM Tris-HCl (pH 7.4), and were dipped in a solution of Sudan Black B (Sigma-Aldrich) in 70% methanol for 5 min. After immunocytochemistry, slides were mounted using Fluoromount Aqueous Mounting Medium (Sigma-Aldrich). Preparations were examined with an Olympus BX-61 microscope (Olympus, Hamburg, Germany) equipped with appropriate filters: FITC/Cy2 (green fluorophores) 460-490 nm bandpass excitation filter and 510-550 nm bandpass emission filter; rhodamine/Cy3 (red fluorophores) 541-551 nm excitation and 572-607 nm emission; and Cy5 (deep red fluorophore) 615-635 nm excitation and 655 nm longpass emission. Digital images were acquired with CellSens Dimension Software (Olympus) and contrasted with Photoshop CS2 Software (Adobe Systems Inc). […]
De novo synthesis of ceramides contribute to the apoptotic process triggered by cannabinoids. […] To this end, we analyzed the expression of serine palmitoyltransferase (SPT), the enzyme that catalyses the rate-limiting step of ceramide synthesis de novo. […]

For a further experiment, the system named is HL60 cells. Nature of the experiment: SPT expression, ceramide staining and SPT inhibition in HL60 cells. In kind it is cell-based, human. To be noted: HL60, co-incubation with cannabinoid, 2 hours. How it is done:
Extracted proteins (15-25 ug/well) were separated by sodium dodecyl sulfate-polyacrylamide gel electrophoresis (SDS/PAGE) in pre-cast polyacrylamide gels AnykD (Bio-Rad Laboratories, Hercules, Calif., USA) under reducing and denaturing conditions. Electrophoretic run was performed at a constant current of 15 mA per gel in a Mini-Protean® Tetra Cell (Bio-Rad Laboratories) and were electrophoretically transferred onto PVDF membranes using Trans-Blot® Turbo™ System (Bio-Rad Laboratories). Blocking was performed with 2% bovine serum albumin [(BSA), Santa Cruz Biotechnology] in Tween-Tris buffer saline (TTBS). Membranes were incubated overnight at 4° C. with corresponding primary antibody in TTBS.
Cells were grown on glass cover slips (Menzel-Glaser, Thermo Fisher Scientific) in the presence or absence of WIN 55,212-2. The cover slips were then washed twice in phosphate-buffered saline (PBS), and the cells were fixed in cold 4% paraformaldehyde for 10 min, treated with sodium borohydride and, permeabilized in 0.02% Triton X-100 in PBS with 10% normal donkey serum for blocking. Cell nuclei were stained with diamidino-2-phenylindole [(DAPI), Pierce, Thermo Fisher Scientific)]. Then, cells were incubated with the anti-CB1 or anti-CB2 receptor antibodies or anti-ceramide in blocking buffer overnight at 4° C. in a humid chamber (Simport, Beloeil, QC, Canada). After washing with PBS, samples were further incubated for 90 min with Alexa 647- or Alexa 488-conjugated donkey secondary antibody.
After final washing in PBS, the cover slips were dried and mounted on slides using Fluoromount Aqueous Mounting Medium (Sigma-Aldrich). Changes in the protein expression were visualized by fluorescence microscopy using a specific excitation for each antibody. Digital images were acquired with CellSens Dimension Software (Olympus) and manipulated with Photoshop CS2 Software (Adobe Systems Inc). There was no labeling when the primary antibody was omitted (data not shown).
Additionally, de novo synthesis of ceramides also contribute to the apoptotic process triggered by cannabinoids in AML. We examined whether ceramides participate in the cannabinoid-induced apoptosis in leukemic cells. To this end, we analyzed the expression of serine palmitoyltransferase (SPT), the enzyme that catalyses the rate-limiting step of ceramide synthesis de novo. […] To ensure that this up-regulation of SPT entails an increased of ceramide synthesis, we examined the expression of ceramide by immunohistochemistry. […] Furthermore, to strengthen the engagement of the ceramide in cannabinoid-induced apoptosis, we analyzed the cannabinoid-induce apoptosis after inhibition of ceramide synthesis with Myoricin, a selective SPT inhibitor.

On to `CCCCCCC(=O)CCCCCC/C=C/C[C@@H](O)[C@H](O)[C@@](N)(CO)C(=O)O` [Myoricin], for which the “fragmentation of PARP induced by cannabinoid, after blockage of ceramide synthesis” value with U266 cells is given as “abolished, at least in part”; in the experiment on HL60 cells, “abolished, at least in part”.
